The data set is described as follows: Stability testing at different pH levels. Format: physicochemical. Particulars: Chelate A (glutamic acid + malic acid). How it is done: Stability testing at different PH levels was performed and turning to Table 1, there is a large range of the chelates' stability, wherein the structure of the chelates can be considered stable.

Consider [Zn(Glu)(Mal)]2Na [Chelate A Zn^2+], for which, under “acid limit of stable pH range”, the “Stability pH of the chelates, Acid medium” value was 0.20. In addition, where the note is “alkaline limit of stable pH range”, the “Stability pH of the chelates, Alkaline medium” value was determined as 11.30.
